Assay results as given in the supplement of paper PMC10307832.

How the values were obtained:
Test in all cases: relative viability (nuclei count vs DMSO), 5 days (fraction); higher = more cells survive
ABC-1 = test system: ABC-1
Method in brief: (§1)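 After 5 days of treatment, lung cancer cells in 1536-well plates were fixed and stained in a single step (final 0.05% Triton X-100, 1% formaldehyde, 1 ug/ml Hoechst) and their nuclei counted on 4× images. Treatment had been applied by pin tool the day after seeding as one drug alone or as a fixed anchor-drug dose with five library-drug doses (not always all listed) in √10 steps. Relative viability is the nuclei count of treated wells divided by that of vehicle wells, and values are medians of duplicate plates.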

COR-L23 = test system: COR-L23
Method in brief: as §1

EPLC-272H = test system: EPLC-272H
Method in brief: as §1

HARA = test system: HARA
Method in brief: as §1

HCC-15 = test system: HCC-15
Method in brief: as §1

HCC-44 = test system: HCC-44
Method in brief: as §1

HOP-62 = test system: HOP-62
Method in brief: as §1

LC-2-ad = test system: LC-2-ad
Method in brief: as §1

LU99A = test system: LU99A
Method in brief: as §1

NCI-H1355 = test system: NCI-H1355
Method in brief: as §1

NCI-H1651 = test system: NCI-H1651
Method in brief: as §1

NCI-H1915 = test system: NCI-H1915
Method in brief: as §1

NCI-H1993 = test system: NCI-H1993
Method in brief: as §1

NCI-H2023 = test system: NCI-H2023
Method in brief: as §1

NCI-H2085 = test system: NCI-H2085
Method in brief: as §1

NCI-H2126 = test system: NCI-H2126
Method in brief: as §1

NCI-H2347 = test system: NCI-H2347
Method in brief: as §1

NCI-H650 = test system: NCI-H650
Method in brief: as §1

NCI-H838 = test system: NCI-H838
Method in brief: as §1

PC-14 = test system: PC-14
Method in brief: as §1

SW 1573 = test system: SW 1573
Method in brief: as §1

UMC-11 = test system: UMC-11
Method in brief: as §1

COc1cc2nccc(Oc3ccc(NC(=O)Nc4cc(C)on4)c(Cl)c3)c2cc1OC [Tivozanib] + CS(=O)(=O)CCNCc1ccc(-c2ccc3ncnc(Nc4ccc(OCc5cccc(F)c5)c(Cl)c4)c3c2)o1 [Lapatinib] (partner 2 µM)
relative viability (ABC-1; first compound 0.005 µM): 1.33
relative viability (ABC-1; first compound 0.01581 µM): 1.15
relative viability (ABC-1; first compound 0.05 µM): 1.26
relative viability (ABC-1; first compound 0.1581 µM): 1.16
relative viability (ABC-1; first compound 0.5 µM): 1.22
relative viability (COR-L23; first compound 0.005 µM): 0.902
relative viability (COR-L23; first compound 0.01581 µM): 0.99
relative viability (COR-L23; first compound 0.05 µM): 0.991
relative viability (COR-L23; first compound 0.1581 µM): 0.928
relative viability (COR-L23; first compound 0.5 µM): 0.67
relative viability (EPLC-272H; first compound 0.005 µM): 0.854
relative viability (EPLC-272H; first compound 0.01581 µM): 0.844
relative viability (EPLC-272H; first compound 0.05 µM): 0.938
relative viability (EPLC-272H; first compound 0.1581 µM): 0.806
relative viability (EPLC-272H; first compound 0.5 µM): 0.671
relative viability (HARA; first compound 0.005 µM): 0.615
relative viability (HARA; first compound 0.01581 µM): 0.724
relative viability (HARA; first compound 0.05 µM): 0.79
relative viability (HARA; first compound 0.1581 µM): 0.641
relative viability (HARA; first compound 0.5 µM): 0.831
relative viability (HCC-15; first compound 0.005 µM): 0.83
relative viability (HCC-15; first compound 0.01581 µM): 0.899
relative viability (HCC-15; first compound 0.05 µM): 0.795
relative viability (HCC-15; first compound 0.1581 µM): 0.977
relative viability (HCC-15; first compound 0.5 µM): 0.831
relative viability (HCC-44; first compound 0.005 µM): 0.95
relative viability (HCC-44; first compound 0.01581 µM): 0.991
relative viability (HCC-44; first compound 0.05 µM): 1.01
relative viability (HCC-44; first compound 0.1581 µM): 0.991
relative viability (HCC-44; first compound 0.5 µM): 0.952
relative viability (HOP-62; first compound 0.005 µM): 0.932
relative viability (HOP-62; first compound 0.01581 µM): 0.944
relative viability (HOP-62; first compound 0.05 µM): 0.994
relative viability (HOP-62; first compound 0.1581 µM): 0.787
relative viability (HOP-62; first compound 0.5 µM): 0.87
relative viability (LC-2-ad; first compound 0.005 µM): 0.959
relative viability (LC-2-ad; first compound 0.01581 µM): 0.944
relative viability (LC-2-ad; first compound 0.05 µM): 0.856
relative viability (LC-2-ad; first compound 0.1581 µM): 0.542
relative viability (LC-2-ad; first compound 0.5 µM): 0.466
relative viability (LU99A; first compound 0.005 µM): 0.914
relative viability (LU99A; first compound 0.01581 µM): 0.924
relative viability (LU99A; first compound 0.05 µM): 0.967
relative viability (LU99A; first compound 0.5 µM): 0.919
relative viability (NCI-H1355; first compound 0.005 µM): 0.894
relative viability (NCI-H1355; first compound 0.01581 µM): 0.941
relative viability (NCI-H1355; first compound 0.05 µM): 1
relative viability (NCI-H1355; first compound 0.5 µM): 0.92
relative viability (NCI-H1651; first compound 0.005 µM): 0.744
relative viability (NCI-H1651; first compound 0.01581 µM): 0.864
relative viability (NCI-H1651; first compound 0.05 µM): 0.863
relative viability (NCI-H1651; first compound 0.1581 µM): 0.653
relative viability (NCI-H1651; first compound 0.5 µM): 0.634
relative viability (NCI-H1915; first compound 0.005 µM): 0.992
relative viability (NCI-H1915; first compound 0.01581 µM): 0.928
relative viability (NCI-H1915; first compound 0.05 µM): 0.946
relative viability (NCI-H1915; first compound 0.1581 µM): 0.965
relative viability (NCI-H1915; first compound 0.5 µM): 0.882
relative viability (NCI-H1993; first compound 0.005 µM): 0.774
relative viability (NCI-H1993; first compound 0.01581 µM): 0.775
relative viability (NCI-H1993; first compound 0.05 µM): 0.758
relative viability (NCI-H1993; first compound 0.1581 µM): 0.713
relative viability (NCI-H1993; first compound 0.5 µM): 0.739
relative viability (NCI-H2023; first compound 0.005 µM): 0.731
relative viability (NCI-H2023; first compound 0.01581 µM): 0.97
relative viability (NCI-H2023; first compound 0.05 µM): 0.878
relative viability (NCI-H2023; first compound 0.1581 µM): 0.634
relative viability (NCI-H2023; first compound 0.5 µM): 0.768
relative viability (NCI-H2085; first compound 0.005 µM): 0.66
relative viability (NCI-H2085; first compound 0.01581 µM): 0.769
relative viability (NCI-H2085; first compound 0.05 µM): 0.774
relative viability (NCI-H2085; first compound 0.1581 µM): 0.579
relative viability (NCI-H2085; first compound 0.5 µM): 0.627
relative viability (NCI-H2126; first compound 0.005 µM): 0.686
relative viability (NCI-H2126; first compound 0.01581 µM): 0.784
relative viability (NCI-H2126; first compound 0.05 µM): 0.755
relative viability (NCI-H2126; first compound 0.1581 µM): 0.559
relative viability (NCI-H2126; first compound 0.5 µM): 0.774
relative viability (NCI-H2347; first compound 0.005 µM): 0.881
relative viability (NCI-H2347; first compound 0.01581 µM): 0.93
relative viability (NCI-H2347; first compound 0.05 µM): 0.963
relative viability (NCI-H2347; first compound 0.1581 µM): 1.11
relative viability (NCI-H2347; first compound 0.5 µM): 0.907
relative viability (NCI-H650; first compound 0.005 µM): 0.759
relative viability (NCI-H650; first compound 0.01581 µM): 0.807
relative viability (NCI-H650; first compound 0.05 µM): 0.844
relative viability (NCI-H650; first compound 0.1581 µM): 0.415
relative viability (NCI-H650; first compound 0.5 µM): 0.535
relative viability (NCI-H838; first compound 0.005 µM): 0.933
relative viability (NCI-H838; first compound 0.01581 µM): 0.913
relative viability (NCI-H838; first compound 0.05 µM): 1.01
relative viability (NCI-H838; first compound 0.5 µM): 0.87
relative viability (PC-14; first compound 0.005 µM): 0.245
relative viability (PC-14; first compound 0.01581 µM): 0.325
relative viability (PC-14; first compound 0.05 µM): 0.308
relative viability (PC-14; first compound 0.1581 µM): 0.255
relative viability (PC-14; first compound 0.5 µM): 0.332
relative viability (SW 1573; first compound 0.005 µM): 0.909
relative viability (SW 1573; first compound 0.01581 µM): 1.25
relative viability (SW 1573; first compound 0.05 µM): 1.16
relative viability (SW 1573; first compound 0.1581 µM): 0.856
relative viability (SW 1573; first compound 0.5 µM): 1.08
relative viability (UMC-11; first compound 0.005 µM): 0.901
relative viability (UMC-11; first compound 0.01581 µM): 0.983
relative viability (UMC-11; first compound 0.05 µM): 1.01
relative viability (UMC-11; first compound 0.5 µM): 0.839
